For 2 molecules, melting point results are on record in patent US6403629B2, “Heterocyclic compounds for therapeutic use” (J.B. Chemical and Pharmaceuticals Limited, priority 2000, dated 2002).

The structures appear in SMILES notation.

One may read the melting point as the temperature of the solid-liquid transition. `Cc1ccc(-c2cc(C(F)(F)F)nn2-c2ccc(F)cc2F)cc1` [Example 2C, 1-(2,4-Difluorophenyl)-5-(4-methylphenyl)-3-(trifluoromethyl)pyrazole] had a melting point of 83 °C.

`Cc1ccc(-c2cc(C(F)(F)F)nn2-c2cc(C)ccc2F)cc1` [Example 2H, 1-(2-Fluoro-5-methylphenyl)-5-(4-methylphenyl)-3-(trifluoromethyl)pyrazole] registered a melting point of 45 °C.
